Source: patent publication US11174462B2, “Microfluidic model of the blood brain barrier” (EMULATE, Inc., priority 2015, dated 2021)
“Also recorded” adds a separate entry of the source.

How the values were obtained:
neurons seeded in chip = assay type: cell-based, human
[1] = test system: cell monolayers with tight junctions; settings: passive paracellular diffusion only; cited from earlier work
[2] = test system: BMECs seeded on a microfluidic device; test: Paracellular permeability assay with Dextran-FITC on chip; assay type: cell-based, human; settings: TNFa exposure, FIG. 14B
Experimental: Albumin or Dextran conjugated to a fluorescent probe (e.g., FITC or TRITC) are frequently used to monitor changes in leakage, and thus barrier function. In this case, Dextran-FITC, a green fluorescent molecule of 4 KDa, or sodium fluorescein (a 0.3 KDa molecule), was added to the bottom (“blood side”) channel. Paracellular permeability was calculated by measuring the permeability of the fluorescent molecule on the Top (“brain side”) channel. […] FIG. 14B involves TNF-alpha exposure, but the readout is membrane permeability as measured by Dextran-FITC.

iBMEC barrier = test: TEER measurement of iBMEC barrier function on TEER chips under flow; assay type: cell-based, human; settings: exposure of chips under flow to TNFa, FIG. 14A
Experimental: Cells were plated on tall channel PDMS chips equipped with incorporated gold electrodes on each channel (see FIG. 13A). Post seeding of BMECs, transendothelial electrical resistance was measured by connecting the electrodes to an EVOM2 voltohmmeter (see FIG. 13B). […] The “damaged” chip was a failure due to the TEER-Chips being a prototype.
Higher TEER values generally indicate a tighter barrier, which is typically desirable for a blood-brain barrier.

Compound: NC1=N[C@H](O)[C@H]2[C@H]3O[C@]4(O)O[C@@H]([C@@H](O)[C@@]2(N1)[C@@H]4O)[C@]3(O)CO [TTX, tetrodotoxin]
- effect on neuronal calcium flux activity (neurons seeded in chip): ablates this activity

Compound: Lucifer Yellow
- permeability across cell monolayers (in words) [1]: low permeability

Compound: TNFa
- effect on permeability to dextran-FITC through the semi-porous membrane [2]: increase in permeability
- effect on iBMEC barrier function (TEER) (iBMEC barrier): weakening of barrier function; also recorded: decrease in barrier function and TEER
